By inhibition is commonly meant the drop in the measured response relative to a control, in per cent.

Assay [1] addresses Proto-oncogene tyrosine-protein kinase Src (Homo sapiens) (UniProt P12931). In words: Inhibition of human full length SRC expressed in baculovirus assessed as substrate phosphorylation using fluorescence-labelled peptides as substrate at 95 uM after 90 mins by microfluidic peptide phosphorylation assay.
The target in assay [2] is T1, Serine/threonine-protein kinase Nek2 (Homo sapiens) (UniProt P51955).
T1 sequence (whole entry): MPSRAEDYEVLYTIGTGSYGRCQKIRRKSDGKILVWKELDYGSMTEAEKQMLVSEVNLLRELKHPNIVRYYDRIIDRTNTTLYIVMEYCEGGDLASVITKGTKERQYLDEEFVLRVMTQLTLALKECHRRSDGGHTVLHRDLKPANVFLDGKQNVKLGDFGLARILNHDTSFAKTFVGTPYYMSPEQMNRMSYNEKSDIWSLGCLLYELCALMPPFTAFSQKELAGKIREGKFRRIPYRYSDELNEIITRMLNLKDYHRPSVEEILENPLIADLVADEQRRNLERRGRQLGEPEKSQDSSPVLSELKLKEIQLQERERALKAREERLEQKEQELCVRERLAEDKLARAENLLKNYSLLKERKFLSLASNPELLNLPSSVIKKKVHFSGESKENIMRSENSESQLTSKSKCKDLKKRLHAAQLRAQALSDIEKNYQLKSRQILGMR
In words: Inhibition of human full length NEK2 expressed in baculovirus assessed as substrate phosphorylation using fluorescence-labelled peptides as substrate at 95 uM after 90 mins by microfluidic peptide phosphorylation assay.

For assay [3], the target named is T2, Inhibitor of nuclear factor kappa-B kinase subunit beta (Homo sapiens) (UniProt O14920).
T2 sequence (whole entry): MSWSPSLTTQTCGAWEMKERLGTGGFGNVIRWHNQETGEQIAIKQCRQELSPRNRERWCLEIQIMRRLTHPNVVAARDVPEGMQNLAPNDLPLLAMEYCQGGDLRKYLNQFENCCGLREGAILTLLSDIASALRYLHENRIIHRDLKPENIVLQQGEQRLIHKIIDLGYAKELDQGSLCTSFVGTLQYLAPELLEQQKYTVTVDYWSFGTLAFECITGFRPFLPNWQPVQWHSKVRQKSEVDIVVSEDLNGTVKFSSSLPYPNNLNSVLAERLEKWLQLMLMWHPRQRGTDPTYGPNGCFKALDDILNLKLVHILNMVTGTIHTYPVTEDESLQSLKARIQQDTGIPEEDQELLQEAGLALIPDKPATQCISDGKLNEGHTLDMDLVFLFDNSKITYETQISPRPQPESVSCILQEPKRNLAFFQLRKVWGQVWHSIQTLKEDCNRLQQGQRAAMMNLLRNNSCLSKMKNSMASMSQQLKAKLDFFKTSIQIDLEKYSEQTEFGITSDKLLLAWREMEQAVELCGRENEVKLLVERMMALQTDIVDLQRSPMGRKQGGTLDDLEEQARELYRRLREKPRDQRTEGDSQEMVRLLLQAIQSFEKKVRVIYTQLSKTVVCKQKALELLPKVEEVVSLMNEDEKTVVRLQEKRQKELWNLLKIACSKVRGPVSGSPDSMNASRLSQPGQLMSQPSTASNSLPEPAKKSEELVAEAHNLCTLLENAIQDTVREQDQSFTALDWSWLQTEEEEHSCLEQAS
In words: Inhibition of human full length IKK beta expressed in baculovirus assessed as substrate phosphorylation using fluorescence-labelled peptides as substrate at 8 uM after 90 mins by microfluidic peptide phosphorylation assay.

Assay [4] deals with Serine/threonine-protein kinase pim-1 (Homo sapiens) (UniProt P11309). As to the kind of experiment: Inhibition of human full length PIM1 expressed in baculovirus assessed as substrate phosphorylation using fluorescence-labelled peptides as substrate at 8 uM after 90 mins by microfluidic peptide phosphorylation assay.
Chain of Serine/threonine-protein kinase pim-1 (Homo sapiens) (P11309 whole entry, looked up): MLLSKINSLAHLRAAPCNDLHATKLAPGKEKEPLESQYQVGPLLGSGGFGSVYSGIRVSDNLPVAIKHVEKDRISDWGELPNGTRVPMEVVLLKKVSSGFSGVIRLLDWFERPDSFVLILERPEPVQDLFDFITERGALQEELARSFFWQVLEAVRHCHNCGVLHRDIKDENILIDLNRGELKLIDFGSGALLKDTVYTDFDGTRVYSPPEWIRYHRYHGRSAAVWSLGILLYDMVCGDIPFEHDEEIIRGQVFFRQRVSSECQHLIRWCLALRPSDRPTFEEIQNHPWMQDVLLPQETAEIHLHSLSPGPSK
Assay [5] concerns the target Glycogen synthase kinase-3 beta (Homo sapiens) (UniProt P49841). In words: Inhibition of human full length GSK-3 beta expressed in baculovirus assessed as substrate phosphorylation using fluorescence-labelled peptides as substrate at 8 uM after 90 mins by microfluidic peptide phosphorylation assay.
The target in assay [6] is T3, MAP kinase-activated protein kinase 5 (Homo sapiens) (UniProt Q8IW41).
T3 sequence (whole entry): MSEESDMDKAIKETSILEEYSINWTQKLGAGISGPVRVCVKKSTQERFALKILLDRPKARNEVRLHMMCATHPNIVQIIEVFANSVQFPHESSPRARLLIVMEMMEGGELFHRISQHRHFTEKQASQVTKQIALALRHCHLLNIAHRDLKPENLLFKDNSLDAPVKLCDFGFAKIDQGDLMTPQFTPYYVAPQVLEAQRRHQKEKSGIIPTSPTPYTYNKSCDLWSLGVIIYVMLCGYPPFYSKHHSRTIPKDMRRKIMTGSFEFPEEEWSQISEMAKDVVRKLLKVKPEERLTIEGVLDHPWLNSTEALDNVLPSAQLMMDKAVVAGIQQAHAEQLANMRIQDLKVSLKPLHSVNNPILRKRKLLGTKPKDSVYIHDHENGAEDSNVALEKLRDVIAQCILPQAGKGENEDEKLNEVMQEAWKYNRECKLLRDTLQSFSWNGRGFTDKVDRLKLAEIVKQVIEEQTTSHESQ
As to the kind of experiment: Inhibition of human full length PRAK expressed in baculovirus assessed as substrate phosphorylation using fluorescence-labelled peptides as substrate at 70 uM after 90 mins by microfluidic peptide phosphorylation assay.

Assay [7] concerns the target T4, Protein kinase C epsilon type (Homo sapiens) (UniProt Q02156).
T4 sequence (whole entry): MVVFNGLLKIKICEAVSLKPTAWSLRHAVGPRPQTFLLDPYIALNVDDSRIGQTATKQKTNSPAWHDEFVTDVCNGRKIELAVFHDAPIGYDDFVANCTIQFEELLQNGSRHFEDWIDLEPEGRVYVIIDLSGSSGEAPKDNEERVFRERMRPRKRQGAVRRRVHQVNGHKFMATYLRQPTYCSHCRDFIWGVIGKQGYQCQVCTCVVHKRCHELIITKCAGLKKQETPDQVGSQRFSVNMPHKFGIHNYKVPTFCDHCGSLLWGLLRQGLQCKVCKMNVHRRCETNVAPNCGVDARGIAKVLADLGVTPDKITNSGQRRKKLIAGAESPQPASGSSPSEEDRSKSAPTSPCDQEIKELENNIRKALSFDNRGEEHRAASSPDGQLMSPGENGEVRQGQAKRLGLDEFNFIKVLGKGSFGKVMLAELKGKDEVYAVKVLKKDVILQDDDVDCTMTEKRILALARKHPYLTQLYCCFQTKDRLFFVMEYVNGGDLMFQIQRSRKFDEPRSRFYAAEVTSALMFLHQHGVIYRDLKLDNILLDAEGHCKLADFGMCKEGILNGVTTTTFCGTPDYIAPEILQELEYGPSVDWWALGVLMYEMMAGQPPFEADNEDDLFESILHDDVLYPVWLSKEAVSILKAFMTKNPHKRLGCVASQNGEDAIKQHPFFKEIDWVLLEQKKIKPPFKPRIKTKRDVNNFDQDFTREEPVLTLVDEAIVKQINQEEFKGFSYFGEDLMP
As to the kind of experiment: Inhibition of human truncated PKC epsilon expressed in baculovirus assessed as substrate phosphorylation using fluorescence-labelled peptides as substrate at 420 uM after 90 mins by microfluidic peptide phosphorylation assay.

Chain of Glycogen synthase kinase-3 beta (Homo sapiens) (P49841 whole entry, looked up): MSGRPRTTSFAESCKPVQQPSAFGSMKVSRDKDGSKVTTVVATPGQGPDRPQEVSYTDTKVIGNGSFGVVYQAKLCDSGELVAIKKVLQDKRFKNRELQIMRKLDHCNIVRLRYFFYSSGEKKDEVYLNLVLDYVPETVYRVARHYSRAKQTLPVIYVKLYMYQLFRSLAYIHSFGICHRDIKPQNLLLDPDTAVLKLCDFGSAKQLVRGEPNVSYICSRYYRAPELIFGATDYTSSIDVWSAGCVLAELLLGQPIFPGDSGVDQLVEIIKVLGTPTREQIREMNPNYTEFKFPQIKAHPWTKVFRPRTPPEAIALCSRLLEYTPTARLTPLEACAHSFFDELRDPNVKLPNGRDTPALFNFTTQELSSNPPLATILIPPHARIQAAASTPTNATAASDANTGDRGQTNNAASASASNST
Chain of Proto-oncogene tyrosine-protein kinase Src (Homo sapiens) (P12931 2-536 limits assumed): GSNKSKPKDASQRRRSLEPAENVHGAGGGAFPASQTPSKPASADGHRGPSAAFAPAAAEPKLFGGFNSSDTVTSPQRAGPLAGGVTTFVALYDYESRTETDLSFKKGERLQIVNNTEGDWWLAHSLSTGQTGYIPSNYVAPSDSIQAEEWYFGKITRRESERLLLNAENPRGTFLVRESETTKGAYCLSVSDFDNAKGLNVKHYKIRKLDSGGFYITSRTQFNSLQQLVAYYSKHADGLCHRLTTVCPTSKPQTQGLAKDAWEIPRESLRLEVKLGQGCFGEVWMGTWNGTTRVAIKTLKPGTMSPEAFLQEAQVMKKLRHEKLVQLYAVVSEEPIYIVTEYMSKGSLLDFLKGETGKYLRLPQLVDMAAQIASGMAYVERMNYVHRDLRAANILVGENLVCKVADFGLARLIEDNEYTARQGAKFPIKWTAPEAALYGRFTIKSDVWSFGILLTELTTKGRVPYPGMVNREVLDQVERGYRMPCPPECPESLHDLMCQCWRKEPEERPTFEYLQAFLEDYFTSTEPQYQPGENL

`NCCc1ccc(-c2ncnc3[nH]cnc23)cc1`: the inhibition is 62% in assay [1] and 0% in assay [2].
With `NCC1CCN(c2ncnc3[nH]ccc23)CC1`, the inhibition in assay [3] came to 13.5%; in assay [4], 9%; in assay [5], 0%.
Regarding `CNCc1ccc(-c2ncnc3[nH]cnc23)cc1`, the inhibition in assay [6] came out at 20.5%.
For `c1nc(N2CCOCC2)c2nc[nH]c2n1`, the inhibition in assay [7] came to 73.5%.

For the origin of these results see ChEMBL document CHEMBL3132769, “Fragment growing to retain or alter the selectivity of anchored kinase hinge-binding fragments” (Medchemcomm, 2014).
